Values quoted from earlier work as cited in US10399946B2, “Solid forms of an S-Nitrosoglutathione reductase inhibitor” (Alpine Immune Sciences, Inc., priority 2015, dated 2019).

How the values were obtained:
[1] = target: S-nitrosoglutathione reductase (GSNOR) (Homo sapiens, UniProt P11766); conditions: variety of assays and therapeutic models
[2] = described in WO2012/048181, US 62/061,557, 62/093,712, 62/138,792, 62/209,724, WO 2016/057811

S-nitrosoglutathione reductase (GSNOR), sequence (P11766 whole entry): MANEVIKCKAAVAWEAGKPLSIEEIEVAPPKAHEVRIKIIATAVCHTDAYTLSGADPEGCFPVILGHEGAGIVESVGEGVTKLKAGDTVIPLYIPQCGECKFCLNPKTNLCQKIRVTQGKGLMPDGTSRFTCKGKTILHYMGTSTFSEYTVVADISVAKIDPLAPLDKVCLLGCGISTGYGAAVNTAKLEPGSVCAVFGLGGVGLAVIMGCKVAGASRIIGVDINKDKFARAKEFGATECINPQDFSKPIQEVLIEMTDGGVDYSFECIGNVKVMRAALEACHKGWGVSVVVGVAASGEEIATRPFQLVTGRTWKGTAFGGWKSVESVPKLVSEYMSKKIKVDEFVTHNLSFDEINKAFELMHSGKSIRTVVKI

## O=C(O)c1ccc(-c2ccc3cc(O)ccc3n2)c(Cl)c1 [Compound 1, 3-chloro-4-(6-hydroxyquinolin-2-yl)benzoic acid]
[1]
  inhibition of S-nitrosoglutathione reductase (GSNOR): selective and reversible inhibition
[2]
  efficacy in asthma, COPD, cystic fibrosis, and IBD models: demonstrates efficacy
